Assays:
striatal neurons = experiment: Primary neuronal mHTT-induced cell death assay (cortico-striatal co-culture); format: cell-based, rat; conditions: for Protection of striatal neurons from mHTT-induced cell death (in words): Figure 7A
Text: Cortical and striatal neurons were isolated from E18 rat embryos and separately transfected with a HTT exon1 fragment containing 73 CAG repeats (HTTN90Q73), together with a plasmid encoding for either a green AcGFP or a red AsRed fluorescent reporter before being plated on glial cells and treated with candidate pharmacological agents. After 5 days in culture, the number of fluorescent cells remaining was counted using an automated high content imaging and analysis platform (GE Healthcare InCell 2000) and any changes in neuronal survival quantified.

TrkB [1] = target: T1, TrkB (Homo sapiens, UniProt Q16620); set-up: host or cells: CHO-K1; conditions: cited from earlier work
T1 sequence (Q16620 32-822): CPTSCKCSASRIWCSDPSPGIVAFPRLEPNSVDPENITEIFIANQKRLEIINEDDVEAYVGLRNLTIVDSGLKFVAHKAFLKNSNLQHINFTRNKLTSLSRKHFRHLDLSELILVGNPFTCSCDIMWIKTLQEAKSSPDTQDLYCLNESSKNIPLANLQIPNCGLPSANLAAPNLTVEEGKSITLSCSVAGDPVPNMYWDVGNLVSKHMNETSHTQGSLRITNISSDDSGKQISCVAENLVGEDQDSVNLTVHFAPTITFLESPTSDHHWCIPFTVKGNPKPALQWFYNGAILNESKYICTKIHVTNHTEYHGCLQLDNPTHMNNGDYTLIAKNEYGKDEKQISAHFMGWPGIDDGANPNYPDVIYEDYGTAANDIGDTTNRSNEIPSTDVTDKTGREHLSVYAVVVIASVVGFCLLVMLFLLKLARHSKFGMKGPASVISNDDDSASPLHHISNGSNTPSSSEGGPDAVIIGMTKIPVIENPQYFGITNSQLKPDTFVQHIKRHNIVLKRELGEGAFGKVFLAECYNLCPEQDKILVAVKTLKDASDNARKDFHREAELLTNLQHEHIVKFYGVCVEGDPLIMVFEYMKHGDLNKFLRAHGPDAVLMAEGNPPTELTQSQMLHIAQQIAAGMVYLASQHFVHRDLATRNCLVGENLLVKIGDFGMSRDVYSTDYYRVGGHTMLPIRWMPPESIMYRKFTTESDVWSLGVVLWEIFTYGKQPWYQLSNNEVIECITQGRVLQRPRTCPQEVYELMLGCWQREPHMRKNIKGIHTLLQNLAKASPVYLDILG

[2] = Solubility assay under CellSensor assay conditions (HPLC-UV); format: physicochemical; conditions: for Concentration @ t = 0: 0 hours; for Concentration @ t = 0 / Concentration @ t = 3 / Concentration @ t = 7: assay buffer, 0.5% DMSO; for Concentration @ t = 3: 3 hours; for Concentration @ t = 7: 7 hours
Method: To align with the functional data, all compound samples and dilutions were prepared using the CellSensor® assay conditions that include: assay buffer, plates, sample volumes and the same timeframe. The assay incubation time was 7 hours. 0, 3 and 7 hour samples were analysed, in triplicate, in the final assay buffer (DMEM/Glutamax + NEAA + 20 mM Hepes pH7.4 + 0.01% BSA, final DMSO concentration 0.5%) at nominal compound concentrations of 5, 20 and 50 µM. […] The 7 and 3 hour samples were prepared at times which allowed simultaneous filtering and sample analysis.

TrkB phosphorylation = experiment: Western blot of TrkB phosphorylation in rat primary cortico-striatal co-cultures; format: cell-based; conditions: 15 minutes; non-transfected; Figure 7B, C
Text: (§1) Clarified cell lysates were resolved by SDS-PAGE, blotted onto nitrocellulose membranes and immunoprobed with the relevant primary and secondary antibody combinations. Anti-pTrkB Tyr^516 (4619), anti-pTrkB Tyr^706/707 (4621), anti-pTrkB, Tyr^816 (4168), anti-pERK1/2 […], anti-pAKT […], anti-TrkB (4603), anti-AKT (4685) and anti-ERK1/2 (4695) were sourced from Cell Signalling Technologies. Anti-GAPDH (IMG-5143A) was obtained from Imgenex; Goat anti-rabbit HRP conjugate (PO448) and Goat anti-mouse HRP conjugate (PO447) were sourced from Dako. Goat anti-mouse 800CW conjugate and Goat anti-rabbit 680 conjugate were sourced from LI-COR. Immunoreactive signals were detected using enhanced chemiluminescence reagent (Amersham) or using the Odyssey infra-red reader.

[3] = test system: Hippocampal HT-22 (TrkB-null cell line); set-up: method as in PMID 21651962; conditions: cited from earlier work
TrkB [4] = target: T1, TrkB; set-up: method as in PMID 19549602; conditions: hippocampal neurons; cited from earlier work
TrkB [5] = target: T1, TrkB; experiment: CellSensor TrkB-NFAT-bla CHO-K1 reporter gene assay (agonist, antagonist, PAM modes); format: cell-based; set-up: host or cells: CHO-K1; conditions: Figure 6B; in presence of ~EC20 BDNF (40 pM)
Method: The assays were configured using Invitrogen CHO-K1 cell lines stably expressing a β-lactamase gene under the control of a NFAT promoter region and the relevant Trk (A, B or C) receptor (except for the Trk null cell line). The activity of the β-lactamase enzyme was quantified via FRET with a fluorescent substrate containing a β-lactam ring, according to manufacturer’s provided protocol. All CellSensor® NFAT-bla CHO-K1 cell lines were seeded into black 384w assay plates in CellSensor® plating media (growth media without antibiotics) at 5,000 cells in a volume of 25 µL per well; cells were incubated at 37°C, 5% CO2 overnight. Then, the assay plating media was removed and replaced with 32 µL of assay media (plating media without serum) and returned to the incubator for 1 hour. […] Test compounds were added (4 µL) and cells were returned to the incubator for 1 hour; dependent on assay mode (agonist, antagonist or positive allosteric modulator) assay media alone (agonist mode), assay media containing EC80 neurotrophin (antagonist mode) or assay media containing EC20 neurotrophin (PAM mode) were then added to the cells (4 µL) for a further 4 hour incubation. ToxBLAzer detection reagent was reconstituted according to the manufacturer’s instructions and 8 µL/well added to the assay plates, these were then incubated at room temperature protected from light for 2 hours. Levels of β-lactamase activity were then quantified by measuring the fluorescent intensity ratio between ^EX400nm/^EM535nm and ^EX400nm/^EM460nm and cytotoxicity quantified by measuring the fluorescence intensity at ^EX590nm/^EM665nm using a Perkin Elmer EnVision.

[6] = test system: TrkB, AKT and ERK1/2 phosphorylation; experiment: Western blot of TrkB, AKT and ERK1/2 phosphorylation in TrkB-NFAT-bla CHO-K1 cells; format: cell-based; conditions: LM22A-4 at low (10 µM) and high (83 µM), N-acetyl serotonin at high (83 µM) concentration; Figure 6E
Text: as §1

TrkB [7] = test system: TrkB; set-up: method as in PMID 20407211; conditions: hippocampal neurons; cited from earlier work

| Structure (SMILES) | Protection of striatal neurons from mHTT-induced cell death (in words) (striatal neurons) | Concentrations at which toxicity was evident (striatal neurons; rat cortico-striatal co-culture) [µM] | Published in vitro activity (in words) (TrkB [1]) | Published in vitro activity: Activity (TrkB [1]) [nM] | Compound remaining in solution ([2]; beyond the tested lower concentration of 5 µM, NFAT assay solutions) [%] | Concentration @ t = 0 ([2]; nominal concentration 5 µM) [µM] | Concentration @ t = 3 ([2]; nominal concentration 5 µM) [µM] | Concentration @ t = 7 ([2]; nominal concentration 5 µM) [µM] | Concentration @ t = 0 ([2]; nominal concentration 20 µM) [µM] | Concentration @ t = 3 ([2]; nominal concentration 20 µM) [µM] | Concentration @ t = 7 ([2]; nominal concentration 20 µM) [µM] | Concentration @ t = 0 ([2]; nominal concentration 50 µM) [µM] | Concentration @ t = 3 ([2]; nominal concentration 50 µM) [µM] | Concentration @ t = 7 ([2]; nominal concentration 50 µM) [µM] | Induction of TrkB phosphorylation (in words) (TrkB phosphorylation) | Concentrations showing toxicity effects, HT-22 cell viability [3] | Potency relative to the cognate neurotrophin (less potent) (TrkB [4]) [fold] | PAM activity, NFAT reporter gene assay, PAM mode (in words) (TrkB [5]) | Basal phospho-ERK1/2 immunoreactive bands [6] | Induction of TrkB-Tyr516 phosphorylation (TrkB [7]) |
| --- | --- | --- | --- | --- | --- | --- | --- | --- | --- | --- | --- | --- | --- | --- | --- | --- | --- | --- | --- | --- |
| O=c1cc(-c2ccccc2)oc2c(O)c(O)ccc12 [7,8-dihydroxyflavone] | failed to mimic the ability of BDNF | ≥ 20 | Neuronal TrkB agonist; Promotes neurogenesis | 10 to 250 | ~20 | 0.49 | 0.24 | 2.3 | 3.0 | 1.9 | 5.2 | 13 | 10 | 13 | failed to mimic the ability of BDNF | above 20 µM | – | – | – | – |
| CN(C)CCC=C1c2ccccc2CCc2ccccc21 [Amitriptyline] | – | – | Neuronal TrkA/B agonist; Neuroprotective | 10 to 250 | – | 3.7 | 4.3 | 3.2 | 7.6 | 7.1 | 5.9 | 33 | 27 | 27 | – | – | ~100 | concentration-dependent TrkB inhibition | – | – |
| O=C(NCCO)c1cc(C(=O)NCCO)cc(C(=O)NCCO)c1 [LM22A-4] | failed to mimic the ability of BDNF | – | TrkB agonist; Neuroprotective | 0.5 to 500 | – | 7.2 | 7.8 | 11 | 17 | 17 | 20 | 59 | 58 | 64 | failed to mimic the ability of BDNF | – | – | – | absence of immunoreactive bands | ~30 % of the efficacy of BDNF |
| CC(=O)NCCc1c[nH]c2ccc(O)cc12 [N-acetyl serotonin] | – | – | Neuronal TrkB agonist | 100 | – | 7.6 | 8.8 | 10 | 13 | 14 | 17 | 38 | 44 | 49 | – | – | – | – | absence of immunoreactive bands | – |

Source: PMC3913682, “A Monoclonal Antibody TrkB Receptor Agonist as a Potential Therapeutic for Huntington’s Disease” (PLoS ONE, 2014)
